Literature values in patent publication US11389512B2, “Use of low molecular weight fractions of human serum albumin in treating diseases” (Ampio Pharmaceuticals, Inc., priority 2015, dated 2022).

Experiments:
[1] = test system: platelet activating factor
[2] = in vivo

| Compound | inhibition of platelet activating factor [1] | time to be cleared from the body [2] |
| --- | --- | --- |
| CC1NC(=O)C(CC(=O)O)NC1=O (centres unmarked) [DA-DKP, 3-methyl-2,5-diketopiperazine-6-acetic acid] | inhibit | – |
| CC(=O)Oc1ccccc1C(=O)O [aspirin, acetylsalicylic acid] | – | 5 days |
